In patent US20250230165A1, “HETEROCYCLIC COMPOUNDS FOR USE IN THE TREATMENT OF CANCER” (ARTIOS PHARMA LIMITED, priority 2021, published 2025):

Target: T1, Human Polθ polymerase domain (aa1820-2590) (Homo sapiens, UniProt O75417)
T1 construct: Human Polθ polymerase domain (aa1820-2590) was expressed in E. coli; made in house; host or cells: E. coli
T1 sequence (O75417 1820-2590): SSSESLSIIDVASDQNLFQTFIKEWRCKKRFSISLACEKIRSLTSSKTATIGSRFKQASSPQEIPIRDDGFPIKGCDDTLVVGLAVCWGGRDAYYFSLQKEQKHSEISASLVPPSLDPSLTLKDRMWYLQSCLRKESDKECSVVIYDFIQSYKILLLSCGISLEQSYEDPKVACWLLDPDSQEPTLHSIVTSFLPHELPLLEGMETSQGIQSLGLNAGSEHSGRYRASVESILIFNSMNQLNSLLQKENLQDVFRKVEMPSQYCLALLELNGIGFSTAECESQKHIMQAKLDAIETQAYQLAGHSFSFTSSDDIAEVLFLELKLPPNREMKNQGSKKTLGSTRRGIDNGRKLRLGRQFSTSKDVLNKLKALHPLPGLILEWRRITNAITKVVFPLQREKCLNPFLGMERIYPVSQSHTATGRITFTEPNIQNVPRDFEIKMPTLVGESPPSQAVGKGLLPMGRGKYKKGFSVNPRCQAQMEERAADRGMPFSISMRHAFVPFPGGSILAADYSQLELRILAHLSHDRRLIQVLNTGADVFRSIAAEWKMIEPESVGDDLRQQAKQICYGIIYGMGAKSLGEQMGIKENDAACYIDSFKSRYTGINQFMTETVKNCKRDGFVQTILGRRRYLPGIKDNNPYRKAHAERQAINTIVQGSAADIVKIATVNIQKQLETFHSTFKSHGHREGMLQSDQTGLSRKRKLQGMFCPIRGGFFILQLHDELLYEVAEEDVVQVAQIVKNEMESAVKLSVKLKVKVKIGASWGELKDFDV
Experiment: Polθ Polymerase Domain Kinact/KI Assay (PicoGreen)
Format: biochemical
Details: 0.8 nM Polθ, 100 nM DNA substrate, kobs vs [I] fit for 2-step covalent inhibitor
Summary of the method: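 Kinact and KI derive from fitting kobs versus [I], where kobs were fitted from EDTA-stopped PicoGreen time courses (up to 60 min) in Tris pH 7.5 buffer with 1% DMSO, 0.8 nM enzyme, 100 nM DNA and […].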

Compound | Kinact/Kl
C=CC(=O)N1CC2(C1)NCCN(CCN1C[C@H]3CC(=O)N(c4cc(C(F)(F)F)cc(C)n4)[C@@H]3C(=O)N(C)c3cccc(F)c31)C2C (single isomer, unassigned) [Example 34b] | 1.69e+06 M⁻¹ s⁻¹
C=C(CN(C)C)C(=O)N1CC(C(F)CCCN2C[C@H]3CC(=O)N(c4cc(C(F)(F)F)cc(C)n4)[C@@H]3C(=O)N(C)c3cccc(Cl)c32)C1 (stereo partly drawn) [Example 300, (3aR,11aS)-6-chloro-5-(4-(1-(2-((dimethylamino)methyl)acryloyl)azetidin-3-yl)-4-fluorobutyl)-10-methyl-1-(6-methyl-4-(trifluoromethyl)pyridin-2-yl)-1,3a,4,5,10,11a-hexahydro-2H-benzo[b]pyrrolo[2,3-f][1,4]diazocine-2,11(3H)-dione] | 3.93e+06 M⁻¹ s⁻¹
C=CC(=O)N1CCn2c(nnc2CN2C[C@H]3CC(=O)N(c4cc(C(F)(F)F)cc(C)n4)[C@@H]3C(=O)N(C)c3cccc(F)c32)C1 [Example 134, (3aR,11aS)-5-((7-acryloyl-5,6,7,8-tetrahydro-[1,2,4]triazolo[4,3-a]pyrazin-3-yl)methyl)-6-fluoro-10-methyl-1-(6-methyl-4-(trifluoromethyl)pyridin-2-yl)-1,3a,4,5,10,11a-hexahydro-2H-benzo[b]pyrrolo[2,3-f][1,4]diazocine-2,11(3H)-dione] | 62000 M⁻¹ s⁻¹
C=CC(=O)N1CCN(c2cc(N3C[C@H]4CC(=O)N(c5cc(C(F)(F)F)cc(C)n5)[C@@H]4C(=O)N(C)c4cccc(F)c43)ccn2)CC1 [Example 53, (3aR,11aS)-5-(2-(4-acryloylpiperazin-1-yl)pyridin-4-yl)-6-fluoro-10-methyl-1-(6-methyl-4-(trifluoromethyl)pyridin-2-yl)-1,3a,4,5,10,11a-hexahydro-2H-benzo[b]pyrrolo[2,3-f][1,4]diazocine-2,11(3H)-dione] | 24000 M⁻¹ s⁻¹
C=CC(=O)N1CCOC[C@H]1c1ccc(CN2C[C@H]3CC(=O)N(c4cc(C(F)(F)F)cc(C)n4)[C@@H]3C(=O)N(C)c3cccc(C)c32)cc1 (racemic) [Example 323a, (3aR,11aS)-5-(4-((R/S)-4-acryloyl-morpholin-3-yl)-benzyl)-6,10-di-methyl-1-(6-meth-yl-4-(trifluorometh-yl)pyridin-2-yl)-1,3a,4,5,10,11a-hexahydro-2H-benzo[b]pyrrolo [2,3-f][1,4]diazo-cine-2,11(3H)-dione] | 640000 M⁻¹ s⁻¹
C=CC(=O)N1CC2(CN(CCN3C[C@H]4CC(=O)N(c5cc(C(F)(F)F)cc(C)n5)[C@@H]4C(=O)N(C)c4cccc(Cl)c43)C[C@H]3COCCN32)C1 (racemic) [Example 26b, (3aR,11aS)-5-(2-((S/R)-1-acryloyl-tetrahydro-1′H-spiro[azetidine-3,6′-pyrazino[2,1-c][1,4]oxazin]-8′(7′H)-yl)ethyl)-6-chloro-10-methyl-1-(6-methyl-4-(trifluoromethyl)pyridin-2-yl)-1,3a,4,5,10,11a-hexahydro-2H-benzo[b]pyrrolo[2,3-f][1,4]diazocine-2, 11(3H)-dione] | 1.29e+06 M⁻¹ s⁻¹
C=C(CN(C)C)C(=O)N1CC2(CC(CN3C[C@H]4CC(=O)N(c5cc(C(F)(F)F)cc(C)n5)[C@@H]4C(=O)N(C)c4cccc(C)c43)C2)C1 [Example 328, (3aR,11aS)-5-((2-(2-((dimethylamino)-methyl)acryloyl)-2-azaspiro[3.3]heptan-6-yl)methyl)-6,10-dimethyl-1-(6-meth-yl-4-(trifluorometh-yl)pyridin-2-yl)-1,3a, 4,5,10,11a-hexa-hydro-2H-benzo[b] pyrrolo[2,3-f][1,4] diazocine-2,11(3H)-dione] | 4.11e+06 M⁻¹ s⁻¹
C=CC(=O)N1CC2(CN(CCN3C[C@H]4CC(=O)N(c5cc(C(F)(F)F)cc(C)n5)[C@@H]4C(=O)N(C)c4cccc(F)c43)C[C@H]3COCCN32)C1 (racemic) [Example 24b, (3aR,11aS)-5-(2-((S/R)-1-acryloyltetrahydro-1′H-spiro[azetidine-3,6′-pyrazino[2,1-c][1,4]oxazin]-8′(7′H)-yl)ethyl)-6-fluoro-10-methyl-1-(6-methyl-4-(trifluoromethyl)pyridin-2-yl)-1,3a,4,5,10,11a-hexahydro-2H-benzo[b]pyrrolo[2,3-f][1,4]diazocine-2, 11(3H)-dione] | 290000 M⁻¹ s⁻¹
Cc1cc(C(F)(F)F)cc(N2C(=O)C[C@@H]3CN(Cc4ccc5c(c4)CCN(C(=O)/C=C/CN(C)C)C5)c4c(F)cccc4N(C)C(=O)[C@H]32)n1 [Example 149, (3aR, 11aS)-5-((2-((E)-4-(dimethylamino)but-2-enoyl)-1,2,3,4-tetrahydroisoquinolin-6-yl)methyl)-6-fluoro-10-methyl-1-(6-methyl-4-(trifluoromethyl)pyridin-2-yl)-1,3a,4,5,10,11a-hexahydro-2H-benzo[b]pyrrolo[2,3-f][1,4]diazocine-2,11(3H)-dione] | 1.08e+06 M⁻¹ s⁻¹
C=CC(=O)N1CCN(CCN2C[C@H]3CC(=O)N(c4cc(C(F)(F)F)cc(C)n4)[C@@H]3C(=O)N(C)c3cccc(C)c32)[C@@H](C)C1 [Example 260, (3aR,11aS)-5-(2-((S)-4-acryloyl-2-methylpiperazin-1-yl)ethyl)-6,10-dimethyl-1-(6-methyl-4-(trifluoromethyl)pyridin-2-yl)-1,3a,4,5,10,11a-hexahydro-2H-benzo[b]pyrrolo[2,3-f][1,4]diazocine-2,11(3H)-dione] | 1.54e+06 M⁻¹ s⁻¹
C=CC(=O)N1CC(N2CCCC(CN3C[C@H]4CC(=O)N(c5cc(C(F)(F)F)cc(C)n5)[C@@H]4C(=O)N(C)c4cccc(F)c43)C2)C1 (single isomer, unassigned) [Example 225a] | 320000 M⁻¹ s⁻¹
C=CC(=O)N1CC(N2CCN(C(=O)CN3C[C@H]4CC(=O)N(c5cc(C(F)(F)F)cc(C)n5)[C@@H]4C(=O)N(C)c4cccc(F)c43)CC2)C1 [Example 51, (3aR,11aS)-5-(2-(4-(1-acryloylazetidin-3-yl)piperazin-1-yl)-2-oxoethyl)-6-fluoro-10-methyl-1-(6-methyl-4-(trifluoromethyl)pyridin-2-yl)-1,3a,4,5,10,11a-hexahydro-2H-benzo[b]pyrrolo[2,3-f][1,4]diazocine-2,11(3H)-dione] | 210000 M⁻¹ s⁻¹
C=CC(=O)N1CC[C@]12CCN(CCN1C[C@H]3CC(=O)N(c4cc(C(F)(F)F)cc(C)n4)[C@@H]3C(=O)N(C)c3cccc(F)c31)C2 (racemic) [Example 21a, (3aR,11aS)-5-(2-((S/R)-1-acryloyl-1,6-diazaspiro[3.4]octan-6-yl)ethyl)-6-fluoro-10-methyl-1-(6-methyl-4-(trifluoromethyl)pyridin-2-yl)-1,3a,4,5,10,11a-hexahydro-2H-benzo[b]pyrrolo[2,3-f][1,4]diazocine-2, 11(3H)-dione] | 54000 M⁻¹ s⁻¹
C=CC(=O)N1C[C@@H]2CN(CCN3C[C@H]4CC(=O)N(c5cc(C(F)(F)F)cc(C)n5)[C@@H]4C(=O)N(C)c4cccc(F)c43)CCN2C(=O)[C@@H]1C (single isomer, unassigned) [Example 59] | 1.08e+06 M⁻¹ s⁻¹
C=CC(=O)N1CCN2CCN(CCN3C[C@H]4CC(=O)N(c5cc(C(F)(F)F)cc(C)n5)[C@@H]4C(=O)N(C)c4cccc(F)c43)C(=O)[C@H]2C1 [Example 46, (3aR,11aS)-5-(2-((R)-8-acryloyl-1-oxooctahydro-2H-pyrazino[1,2-a]pyrazin-2-yl)ethyl)-6-fluoro-10-methyl-1-(6-methyl-4-(trifluoromethyl)pyridin-2-yl)-1,3a,4,5,10,11a-hexahydro-2H-benzo [b]pyrrolo[2,3-f][1,4] diazocine-2,11(3H)-dione] | 480000 M⁻¹ s⁻¹
C=CC(=O)N1CCCC1c1ccc(CN2C[C@H]3CC(=O)N(c4cc(C(F)(F)F)cc(C)n4)[C@@H]3C(=O)N(C)c3cccc(F)c32)cc1 (single isomer, unassigned) [Example 141a] | 200000 M⁻¹ s⁻¹
C#CC(=O)NC12CC(CN3C[C@H]4CC(=O)N(c5cc(C(F)(F)F)cc(C)n5)[C@@H]4C(=O)N(C)c4cccc(C)c43)(C1)C2 [Example 200, N-(3-(((3aR,11aS)-6,10-dimethyl-1-(6-methyl-4-(tri-fluoromethyl)pyri-din-2-yl)-2,11-dioxo-1,2,3,3a,4, 10,11,11a-octa-hydro-5H-benzo[b]pyrrolo[2,3-f][1,4]diazocin-5-yl)-methyl)bicyclo [1.1.1]pentan-1-yl)propiolamide] | 690000 M⁻¹ s⁻¹
C=C(CN(C)C)C(=O)N1CCC(CCCN2C[C@H]3CC(=O)N(c4cc(C(F)(F)F)cc(C)n4)[C@@H]3C(=O)N(C)c3cccc(Cl)c32)CC1 [Example 158, (3aR,11aS)-6-chloro-5-(3-(1-(2-((dimethylamino)methyl)acryloyl)piperidin-4-yl)propyl)-10-methyl-1-(6-methyl-4-(trifluoromethyl)pyridin-2-yl)-1,3a,4,5,10,11a-hexahydro-2H-benzo[b]pyrrolo[2,3-f][1,4]diazocine-2,11(3H)-dione] | 3.72e+06 M⁻¹ s⁻¹
